Test system: Phakopsora pachyrhizi
Assay: In vivo protective test on Phakopsora pachyrhizi (soybeans)
Conditions: 250 ppm of active ingredient, evaluated 11 days after inoculation
`CCc1nn(C)c(F)c1C(=O)N1CCCCC1c1cc(OC)cc(OC)c1` (stereo not shown) [Example 67] showed an Efficacy of 90%.

Test system: Pyrenophora teres
Assay: In vivo preventive test on Pyrenophora teres (barley)
Conditions: 500 ppm of active ingredient, evaluated 7-9 days after inoculation
Procedure, shortened: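 Young barley plants sprayed with compound in DMF/alkylaryl polyglycol ether emulsion; inoculated with P. teres spores one day later. 48 h at 22 °C, 100% humidity, then greenhouse ~20 °C, ~80% humidity; efficacy scored 7-9 days post-inoculation, 0% = untreated, 100% = no disease.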
Compound `Cc1cc(C)cc(C2CCCCN2C(=O)c2c(C(F)F)nn(C)c2F)c1` (stereo not shown) [Example 30] has an Efficacy of 100%.
In the case of `CCC(c1ccccc1Cl)C1CCCCN1C(=O)c1c(C(F)F)nn(C)c1F` (stereo not shown) [Example 162], the Efficacy is reported as 100%.
`Cc1nn(C)c(F)c1C(=O)N1CCCCC1c1cccc(Br)c1` (stereo not shown) [Example 95] showed an Efficacy of 95%.
`CCc1nn(C)c(F)c1C(=O)N1CCCCC1c1cc(OC)cc(OC)c1` (stereo not shown) [Example 67] showed an Efficacy of 90%.
Work on `Cc1cc(C(=O)N2CCCCC2c2ccc(Cl)cc2)c(C)o1` (stereo not shown) [Example 53] yielded an Efficacy of 95%.

Test system: Venturia inaequalis
Assay: In vivo preventive test on Venturia inaequalis (apple scab)
Conditions: 100 ppm of active ingredient, evaluated 10 days after inoculation
Procedure: (§1) Solvent: 24.5 parts by weight of acetone • 24.5 parts by weight of N,N-dimethylacetamide Emulsifier: 1 part by weight of alkylaryl polyglycol ether To produce a suitable preparation of active compound, 1 part by weight of active compound is mixed with the stated amounts of solvent and emulsifier, and the concentrate is diluted with water to the desired concentration. To test for preventive activity, young plants are sprayed with the preparation of active compound at the stated rate of application. After the spray coating has dried on, the plants are inoculated with an aqueous conidia suspension of the causal agent of apple scab (Venturia inaequalis) and then remain for 1 day in an incubation cabinet at approximately 20° C. and a relative atmospheric humidity of 100%. The plants are then placed in a greenhouse at approximately 21° C. and a relative atmospheric humidity of approximately 90%. The test is evaluated 10 days after the inoculation. 0% means an efficacy which corresponds to that of the untreated control, while an efficacy of 100% means that no disease is observed.
Work on `Cc1cc(C)cc(C2CCCCN2C(=O)c2c(C(F)F)nn(C)c2F)c1` (stereo not shown) [Example 30] yielded an Efficacy of 100%.
With `CCc1nn(C)c(F)c1C(=O)N1CCCCC1c1cc(OC)cc(OC)c1` (stereo not shown) [Example 67] the Efficacy was 100%.

Test system: Sphaerotheca fuliginea
Assay: In vivo preventive test on Sphaerotheca fuliginea (cucumber)
Conditions: 500 ppm of active ingredient, evaluated 7 days after inoculation
Procedure: Solvent: 49 parts by weight of N,N-dimethylformamide Emulsifier: 1 part by weight of Alkylarylpolyglycolether To produce a suitable preparation of active compound, 1 part by weight of active compound is mixed with the stated amounts of solvent and emulsifier, and the concentrate is diluted with water to the desired concentration. To test for preventive activity, young plants are sprayed with the preparation of active compound at the stated rate of application. One day after this treatment, the plants are inoculated with an aqueous spore suspension of Sphaerotheca fuliginea. Then the plants are placed in a greenhouse at approximately 23° C. and a relative atmospheric humidity of approximately 70%. The test is evaluated 7 days after the inoculation. 0% means an efficacy which corresponds to that of the untreated control, while an efficacy of 100% means that no disease is observed.
In the case of `Cc1cc(C)cc(C2CCCCN2C(=O)c2c(C(F)F)nn(C)c2F)c1` (stereo not shown) [Example 30], the Efficacy is reported as 100%.
`CCC(c1ccccc1Cl)C1CCCCN1C(=O)c1c(C(F)F)nn(C)c1F` (stereo not shown) [Example 162] showed an Efficacy of 100%.
Work on `Cc1nn(C)c(F)c1C(=O)N1CCCCC1c1cccc(Br)c1` (stereo not shown) [Example 95] yielded an Efficacy of 91%.

Test system: Alternaria solani
Assay: In vivo preventive test on Alternaria solani (tomato)
Conditions: 500 ppm of active ingredient, evaluated 7 days after inoculation
Procedure, shortened: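 Young tomato plants were sprayed preventively with compound in DMF/alkylarylpolyglycolether diluted in water, then inoculated one day later with A. solani spores. Incubation was 1 day at about 22 °C and 100% RH, then about 20 °C and 96% RH. Efficacy was scored 7 days after inoculation (0% = untreated control, 100% = no disease).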
`CCC(c1ccccc1Cl)C1CCCCN1C(=O)c1c(C(F)F)nn(C)c1F` (stereo not shown) [Example 162] showed an Efficacy of 100%.
Work on `Cc1nn(C)c(F)c1C(=O)N1CCCCC1c1cccc(Br)c1` (stereo not shown) [Example 95] yielded an Efficacy of 100%.
`CCc1nn(C)c(F)c1C(=O)N1CCCCC1c1cc(OC)cc(OC)c1` (stereo not shown) [Example 67] showed an Efficacy of 95%.
Compound `Cc1cc(C(=O)N2CCCCC2c2ccc(Cl)cc2)c(C)o1` (stereo not shown) [Example 53] has an Efficacy of 90%.

Test system: not listed separately
Assay: log P by HPLC on reversed-phase column (C 18), EEC Directive 79/831 Annex V.A8
Format: physicochemical
Conditions: HPLC on reversed-phase column (C 18); 40° C.; 0.1% aqueous formic acid and acetonitrile; linear gradient 10% to 90% acetonitrile
Procedure, shortened: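 Gradient elution (10% to 90% acetonitrile, 0.1% aqueous formic acid) at 40° C; log P interpolated linearly between flanking alkan-2-one standards (3 to 16 carbons).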
`Cc1cc(C)cc(C2CCCCN2C(=O)c2c(C(F)F)nn(C)c2F)c1` (stereo not shown) [Example 30] gave a logP of 3.71.
For `CCC(c1ccccc1Cl)C1CCCCN1C(=O)c1c(C(F)F)nn(C)c1F` (stereo not shown) [Example 162], the logP was 4.13.
In the case of `Cc1nn(C)c(F)c1C(=O)N1CCCCC1c1cccc(Br)c1` (stereo not shown) [Example 95], the logP is reported as 3.06.
Compound `CCc1nn(C)c(F)c1C(=O)N1CCCCC1c1cc(OC)cc(OC)c1` (stereo not shown) [Example 67] has a logP of 2.84.
`Cc1cc(C(=O)N2CCCCC2c2ccc(Cl)cc2)c(C)o1` (stereo not shown) [Example 53] showed a logP of 4.04.

Test system: Blumeria graminis f. sp. hordei
Assay: In vivo preventive test on Blumeria graminis (barley)
Conditions: 500 ppm of active ingredient, evaluated 7 days after inoculation
Procedure: (§2) Solvent: 49 parts by weight of N,N-dimethylacetamide Emulsifier: 1 part by weight of alkylaryl polyglycol ether To produce a suitable preparation of active compound, 1 part by weight of active compound or active compound combination is mixed with the stated amounts of solvent and emulsifier, and the concentrate is diluted with water to the desired concentration. To test for preventive activity, young plants are sprayed with the preparation of active compound or active compound combination at the stated rate of application. After the spray coating has been dried, the plants are dusted with spores of Blumeria graminis f. sp. hordei. The plants are placed in the greenhouse at a temperature of approximately 18° C. and a relative atmospheric humidity of approximately 80% to promote the development of mildew pustules. The test is evaluated 7 days after the inoculation. 0% means an efficacy which corresponds to that of the untreated control, while an efficacy of 100% means that no disease is observed.
`Cc1cc(C)cc(C2CCCCN2C(=O)c2c(C(F)F)nn(C)c2F)c1` (stereo not shown) [Example 30] showed an Efficacy of 100%.
For `CCC(c1ccccc1Cl)C1CCCCN1C(=O)c1c(C(F)F)nn(C)c1F` (stereo not shown) [Example 162], the Efficacy was 94%.
`Cc1nn(C)c(F)c1C(=O)N1CCCCC1c1cccc(Br)c1` (stereo not shown) [Example 95] gave an Efficacy of 100%.
In the case of `Cc1cc(C(=O)N2CCCCC2c2ccc(Cl)cc2)c(C)o1` (stereo not shown) [Example 53], the Efficacy is reported as 70%.

Test system: Leptosphaeria nodorum
Assay: In vivo preventive test on Leptosphaeria nodorum (wheat)
Conditions: 500 ppm of active ingredient, evaluated 8 days after inoculation
Procedure: as §2, with “sprayed” for “dusted”, “a spore suspension” for “spores”, “Leptosphaeria nodorum. The plants remain for 48 hours in an incubation cabinet at approximately 20° C. and a relative atmospheric humidity of approximately 100%.” for “Blumeria graminis f. sp. hordei.”, “22°” for “18°”, “80%.” for “80% to promote the development of mildew pustules.”, “8” for “7”
With `Cc1cc(C)cc(C2CCCCN2C(=O)c2c(C(F)F)nn(C)c2F)c1` (stereo not shown) [Example 30] the Efficacy was 90%.
Compound `CCC(c1ccccc1Cl)C1CCCCN1C(=O)c1c(C(F)F)nn(C)c1F` (stereo not shown) [Example 162] has an Efficacy of 90%.
Compound `Cc1nn(C)c(F)c1C(=O)N1CCCCC1c1cccc(Br)c1` (stereo not shown) [Example 95] has an Efficacy of 89%.
Work on `Cc1cc(C(=O)N2CCCCC2c2ccc(Cl)cc2)c(C)o1` (stereo not shown) [Example 53] yielded an Efficacy of 78%.

Test system: Fusarium nivale (var. majus)
Assay: In vivo preventive test on Fusarium nivale (wheat)
Conditions: 500 ppm of active ingredient, evaluated 5 days after inoculation
Procedure: Solvent: 49 parts by weight of N,N-dimethylacetamide Emulsifier: 1 part by weight of alkylaryl polyglycol ether To produce a suitable preparation of active compound, 1 part by weight of active compound or active compound combination is mixed with the stated amounts of solvent and emulsifier, and the concentrate is diluted with water to the desired concentration. To test for preventive activity, young plants are sprayed with the preparation of active compound or active compound combination at the stated rate of application. After the spray coating has been dried, the plants are slightly injured by using a sandblast and afterwards they are sprayed with a conidia suspension of Fusarium nivale (var. majus). The plants are placed in the greenhouse under a translucent incubation cabinet at a temperature of approximately 10° C. and a relative atmospheric humidity of approximately 100%. The test is evaluated 5 days after the inoculation. 0% means an efficacy which corresponds to that of the untreated control, while an efficacy of 100% means that no disease is observed.
For `Cc1cc(C)cc(C2CCCCN2C(=O)c2c(C(F)F)nn(C)c2F)c1` (stereo not shown) [Example 30], the Efficacy was 100%.
For `Cc1nn(C)c(F)c1C(=O)N1CCCCC1c1cccc(Br)c1` (stereo not shown) [Example 95], the Efficacy was 100%.
For `Cc1cc(C(=O)N2CCCCC2c2ccc(Cl)cc2)c(C)o1` (stereo not shown) [Example 53], the Efficacy was 100%.

Test system: Septoria tritici
Assay: In vivo preventive test on Septoria tritici (wheat)
Conditions: 500 ppm of active ingredient, evaluated 21 days after inoculation
Procedure: (§3) Solvent: 49 parts by weight of N,N-dimethylacetamide Emulsifier: 1 part by weight of alkylaryl polyglycol ether To produce a suitable preparation of active compound, 1 part by weight of active compound or active compound combination is mixed with the stated amounts of solvent and emulsifier, and the concentrate is diluted with water to the desired concentration. To test for preventive activity, young plants are sprayed with the preparation of active compound or active compound combination at the stated rate of application. After the spray coating has been dried, the plants are sprayed with a spore suspension of Septoria tritici. The plants remain for 48 hours in an incubation cabinet at approximately 20° C. and a relative atmospheric humidity of approximately 100% and afterwards for 60 hours at approximately 15° C. in a translucent incubation cabinet at a relative atmospheric humidity of approximately 100%. The plants are placed in the greenhouse at a temperature of approximately 15° C. and a relative atmospheric humidity of approximately 80%. The test is evaluated 21 days after the inoculation. 0% means an efficacy which corresponds to that of the untreated control, while an efficacy of 100% means that no disease is observed.
For `Cc1cc(C)cc(C2CCCCN2C(=O)c2c(C(F)F)nn(C)c2F)c1` (stereo not shown) [Example 30], the Efficacy was 100%.
With `CCC(c1ccccc1Cl)C1CCCCN1C(=O)c1c(C(F)F)nn(C)c1F` (stereo not shown) [Example 162] the Efficacy was 100%.
Work on `Cc1nn(C)c(F)c1C(=O)N1CCCCC1c1cccc(Br)c1` (stereo not shown) [Example 95] yielded an Efficacy of 100%.
`Cc1cc(C(=O)N2CCCCC2c2ccc(Cl)cc2)c(C)o1` (stereo not shown) [Example 53] gave an Efficacy of 90%.

Test system: Uromyces appendiculatus
Assay: In vivo preventive test on Uromyces appendiculatus (bean rust)
Conditions: 100 ppm of active ingredient, evaluated 10 days after inoculation
Procedure: as §1, with “spore” for “conidia”, “bean rust (Uromyces appendiculatus)” for “apple scab (Venturia inaequalis)”
`CCc1nn(C)c(F)c1C(=O)N1CCCCC1c1cc(OC)cc(OC)c1` (stereo not shown) [Example 67] showed an Efficacy of 95%.

Test system: Puccinia triticina
Assay: In vivo preventive test on Puccinia triticina (wheat)
Conditions: 500 ppm of active ingredient, evaluated 8 days after inoculation
Procedure: as §3, with “Puccinia triticina.” for “Septoria tritici.”, “approximately” for “approximately 100% and afterwards for 60 hours at approximately 15° C. in a translucent incubation cabinet at a relative atmospheric humidity of approximately”, “20°” for “15°”, “8” for “21”
Compound `Cc1cc(C)cc(C2CCCCN2C(=O)c2c(C(F)F)nn(C)c2F)c1` (stereo not shown) [Example 30] has an Efficacy of 100%.
With `CCC(c1ccccc1Cl)C1CCCCN1C(=O)c1c(C(F)F)nn(C)c1F` (stereo not shown) [Example 162] the Efficacy was 100%.
With `Cc1nn(C)c(F)c1C(=O)N1CCCCC1c1cccc(Br)c1` (stereo not shown) [Example 95] the Efficacy was 71%.
`Cc1cc(C(=O)N2CCCCC2c2ccc(Cl)cc2)c(C)o1` (stereo not shown) [Example 53] showed an Efficacy of 71%.

Reference: patent US9545105B2, “1-(heterocyclic carbonyl) piperidines” (BAYER INTELLECTUAL PROPERTY GMBH, priority 2010, dated 2017)
